Counter-ions that a name gives are not always drawn. Like-named read-outs stand apart in the source and are kept apart here.
Key:
SARS-CoV-2 [1] = format: cell-based; settings: for antiviral effect on CoV-2 replication: up to 20 μM; for virus-yield decrease, CoV-2: nontoxic single dose, 48 h
HCoV-OC43 = assay: microbe, parasite or virus in culture; format: cell-based; settings: for EC50: Betacoronavirus 1, OC43, Huh-7, read-out: Antiviral activity against HCoV-OC43 Huh7 cells EC50; for antiviral activity against HCoV-OC43: up to 20 μM
in vitro [2] = settings: African green monkey
CoV-2 and HCoV-OC43 = assay: sofosbuvir antiviral evaluation in additional cells; format: cell-based
in vitro [3] = settings: human
in vitro [4] = settings: human; remark: listed apart in the source
in vitro [5] = settings: human; remark: listed apart in the source
SARS-CoV-2 [6] = settings: read-out: reported EC50; Vero E6 cells; cited from earlier work
COVID-19 = settings: 1,063 hospitalized patients; placebo 15 days; P < 0.0001; cited from earlier work

Row | Structure (SMILES) | EC50 (HCoV-OC43) [µM] | CC50 (in vitro [2]) [µM] | antiviral effect on CoV-2 replication (SARS-CoV-2 [1]; Vero cells) | CC50 (in vitro [3]) [µM] | CC50 (in vitro [4]) [µM] | CC50 (in vitro [5]) [µM] | also measured
1 | C[C@@]1(O)[C@H](O)[C@@H](CO)O[C@H]1n1ccc(N)nc1=O [Compound 1, 2′-C-methylcytidine] | 10 ± 0.7 | > 100 |  |  |  |  | selectivity index (SI) for SARS-CoV-2 (SARS-CoV-2 [1]; CC50/EC50, Vero cells): > 10; toxicity in Vero cells (Vero CCL-81 cells; up to 100 μM): no toxicity
2 | C[C@@]1(O)[C@H](O)[C@@H](CO)O[C@H]1n1cc(F)c2c(N)ncnc21 [Compound 2, 7-deaza-7-fluoro-2′-C-methyladenosine] | 6.7 ± 1.1 | > 100 |  |  |  |  | selectivity index (SI) for SARS-CoV-2 (SARS-CoV-2 [1]): > 10; toxicity in Vero cells (Vero CCL-81 cells): no toxicity
3 | CC(C)OC(=O)[C@H](C)N[P@](=O)(OC[C@H]1O[C@@H](n2ccc(=O)[nH]c2=O)[C@](C)(F)[C@@H]1O)Oc1ccccc1 [Compound 4, sofosbuvir] | > 20 | > 100 | no antiviral effect | > 100 | > 100 | > 100 | EC50 (CoV-2 and HCoV-OC43; Betacoronavirus 1, OC43, Calu-3, in Homo sapiens, read-out: EC50 in Calu3 cells): > 20 µM; EC50 (CoV-2 and HCoV-OC43; Betacoronavirus 1, OC43, RD, in Homo sapiens, read-out: EC50 in RD cells): > 20 µM; EC50 (CoV-2 and HCoV-OC43; Caco-2, read-out: EC50 in Caco-2 cells): > 20 µM
4 | Nc1ccn([C@@H]2O[C@@](CO)(CCl)[C@@H](O)[C@H]2F)c(=O)n1 [Compound 5, ALS-8112] | > 20 | > 100 | did not have a marked effect |  |  |  | 
5 | NC(=O)c1nc(F)c[nH]c1=O [Compound 8, favipiravir] | 6.8 | > 100 |  | > 100 | > 100 | > 100 | 
6 | C=C1[C@H](CO)[C@@H](O)C[C@@H]1n1cnc2c(=O)[nH]c(N)nc21 [Compound 9, entecavir] | > 20 | > 100 |  |  |  |  | 
7 | CCC(CC)COC(=O)[C@H](C)N[P@](=O)(OC[C@H]1O[C@@](C#N)(c2ccc3c(N)ncnn23)[C@H](O)[C@@H]1O)Oc1ccccc1 [Compound 10, remdesivir] | 0.04 ± 0.1 | > 100 |  |  |  |  | selectivity index (SI) for SARS-CoV-2 (SARS-CoV-2 [1]; CC50/EC50, Vero cells): > 100; virus-yield decrease, CoV-2 (SARS-CoV-2 [1]; Vero cells): > 90%; selectivity index (SI) for HCoV-OC43 (HCoV-OC43; CC50/EC50, Huh-7 cells): 52; EC50 (SARS-CoV-2 [6]): 1.85 µM; time to recovery (COVID-19): 11 days
8 | N#C[C@@]1(c2ccc3c(N)ncnn23)O[C@H](CO)[C@@H](O)[C@H]1O [Compound 11, GS-441524] | > 10 | > 100 |  | > 100 | > 100 | > 100 | selectivity index (SI) for SARS-CoV-2 (SARS-CoV-2 [1]; CC50/EC50, Vero cells): 12; virus-yield decrease, CoV-2 (SARS-CoV-2 [1]; Vero cells): > 90%; EC50 (SARS-CoV-2 [6]): 0.47 µM
9 | NC(=O)c1ncn([C@@H]2O[C@H](CO)[C@@H](O)[C@H]2O)n1 [Compound 12, ribavirin] | 20.6 | > 100 | did not exhibit a marked inhibitory effect |  |  |  | antiviral activity against HCoV-OC43 (HCoV-OC43; Huh-7 cells): did not exhibit a marked inhibitory effect
10 | Nc1ccn([C@@H]2CS[C@H](CO)O2)c(=O)n1 [Compound 13, lamivudine] | > 20 | > 100 | did not show any activity | > 100 | > 100 | > 100 | antiviral activity against HCoV-OC43 (HCoV-OC43; Huh-7 cells): did not show any activity
11 | Nc1nc(=O)n([C@@H]2CS[C@H](CO)O2)cc1F [Compound 14, emtricitabine] | > 20 | > 100 |  | > 100 | > 100 | > 100 | 
12 | CC(C)OC(=O)[C@H](C)N[P@](=O)(CO[C@H](C)Cn1cnc2c(N)ncnc21)Oc1ccccc1 [Compound 15, tenofovir alafenamide] | > 20 | 36.4 |  |  |  |  | 
13 | CC(C)OC(=O)OCOP(=O)(CO[C@H](C)Cn1cnc2c(N)ncnc21)OCOC(=O)OC(C)C [Compound 16, tenofovir disoproxil fumarate] | > 20 | > 100 | did not show any activity |  |  |  | antiviral activity against HCoV-OC43 (HCoV-OC43; Huh-7 cells): did not show any activity

From paper PMC7927863 (Antimicrobial Agents and Chemotherapy, 2020)
